From US20230085307A1, “PYRIDAZINONE COMPOUND AND HERBICIDE” (NISSAN CHEMICAL CORPORATION, priority 2019, published 2023)

Tests used:
false cleavers [1] = test: Test Example 5: herbicidal effect by foliage application, plastic box (Table 20, symbol Q); type: in vivo, false cleavers (Galium spurium); settings: foliage application; for Q: false cleavers, herbicidal effect (criteria 0-5) / herbicidal effect on Q: false cleavers: evaluated three weeks after application; for effect on false cleavers (Q) / herbicidal effect grade, Q: false cleavers / herbicidal effect on Q: false cleavers: 320 g/ha; for effect on false cleavers (Q): 3 weeks after application
In short: (§1)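 Post-emergence foliar test in sterilized diluvial soil. Compound applied as water-diluted emulsion at a predetermined rate to 14-day-old plants; evaluation at three weeks.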

transplanted rice = test: Test Example 1: effect on crop, application before weed generation under submerged conditions (Table 16, symbol a); type: in vivo; settings: 320 g/ha applied herbicide
In short: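 Submerged Wagner pots (alluvial soil, 4 cm water) sown with weed seeds and planted with 2.5-leaf rice seedlings; emulsifiable concentrate diluted in water applied to water surface on sowing day. Held in greenhouse at 25-30 °C; injury scored 0-5 by herbicidal rate after three weeks.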

soybean [2] = test: Test Example 5: effect on crop by foliage application, plastic box (Table 20, symbol d); type: in vivo; settings: 320 g/ha
In short: as §1

directly sowed rice = test: Test Example 3: effect on crop by foliage application, Wagner pot (Table 18, symbol b); type: in vivo; settings: 320 g/ha
In short: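 Plants were sown in alluvial soil held under 0.1–0.5 cm standing water and grown 14 days in a greenhouse at 25–30 °C. An emulsifiable formulation, water-diluted to the set dose, was then sprayed onto the foliage, and effects were scored three weeks later using previously defined criteria.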

wheat [3] = test: Test Example 5: effect on crop by foliage application, plastic box (Table 20, symbol e); type: in vivo; settings: 320 g/ha
In short: as §1

beet [4] = test: Test Example 4: effect on crop by soil treatment (Table 19, symbol f); type: in vivo
In short: (§2)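 Scoring uses the grading scale of an earlier test, three weeks post-application. Treatment consists of spraying a diluted emulsion formulation across the surface of sterilized diluvial soil in which seeds are buried near 1.5 cm deep; boxes are kept in a greenhouse between 25° C. and 30° C.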

corn [5] = test: Test Example 4: effect on crop by soil treatment (Table 19, symbol c); type: in vivo
In short: as §2

soybean [6] = test: Test Example 4: effect on crop by soil treatment (Table 19, symbol d); type: in vivo
In short: as §2

corn [7] = test: Test Example 5: effect on crop by foliage application, plastic box (Table 20, symbol c); type: in vivo; settings: 320 g/ha
In short: as §1

beet [8] = test: Test Example 5: effect on crop by foliage application, plastic box (Table 20, symbol f); type: in vivo; settings: 320 g/ha
In short: as §1

rapeseed [9] = test: Test Example 4: effect on crop by soil treatment (Table 19, symbol g); type: in vivo
In short: as §2

wheat [10] = test: Test Example 4: effect on crop by soil treatment (Table 19, symbol e); type: in vivo
In short: as §2

rapeseed [11] = test: Test Example 5: effect on crop by foliage application, plastic box (Table 20, symbol g); type: in vivo; settings: 320 g/ha
In short: as §1

false cleavers [12] = test: Test Example 4: herbicidal effect by soil treatment (Table 19, symbol Q); type: in vivo, false cleavers (Galium spurium)
In short: as §2

[13] = amount of applied herbicide 320 g/ha

For `COc1cccc(S(=O)(=O)Oc2c(C)nn(C)c(=O)c2-c2c(-c3ccc(OC(F)F)cc3)sc3ccc(F)cc23)c1` [2-313], the “Q: false cleavers, herbicidal effect (criteria 0-5)” value (false cleavers [1]; AAH 320 g/ha) was 5 (Herbicidal rate of 90% or more (almost completely withered)).

In the case of `C=CCOc1ccccc1-c1sc2ccccc2c1-c1c(O)c(C)nn(C)c1=O` [1-110], the “Q: false cleavers, herbicidal effect” value (false cleavers [1]; AAH 320 g/ha, three weeks after application) is reported as 5 (Herbicidal rate of 90% or more (almost completely withered)).

For `Cc1nn(C)c(=O)c(-c2c(-c3ccc(Cl)cc3)sc3ccc(F)cc23)c1O` [Compound No. 2-010, 4-(2-(4-chlorophenyl)-5-fluorobenzo[b]thiophen-3-yl)-5-hydroxy-2,6-dimethylpyridazin-3(2H)-one], the “Effect on crop a: transplanted rice (grade 0-5)” value (transplanted rice) was 0 (Herbicidal rate of 5% or less (almost no effect)), the “effect on soybean (d)” value (soybean [2]; 3 weeks after application) was 3 (Herbicidal rate of 40% or more and less than 70%) and the “effect on crop b (directly sowed rice), rating 0-5” value (directly sowed rice) was 0 (Herbicidal rate of 5% or less (almost no effect)). For the same compound, the “effect on wheat (e)” value (wheat [3]; 3 weeks after application) was 0 (Herbicidal rate of 5% or less (almost no effect)), the “effect rating on crop, f: beet” value (beet [4]; 320 g/ha) was 3 (Herbicidal rate of 40% or more and less than 70%) and the “effect rating on crop, c: corn” value (corn [5]; 320 g/ha) was 0 (Herbicidal rate of 5% or less (almost no effect)). The “effect rating on crop, d: soybean” value (soybean [6]; 320 g/ha) was 0 (Herbicidal rate of 5% or less (almost no effect)), the melting point was 258 to 259 °C and the “effect on corn (c)” value (corn [7]; 3 weeks after application) was 0 (Herbicidal rate of 5% or less (almost no effect)). The “effect on beet (f)” value (beet [8]; 3 weeks after application) was 5 (Herbicidal rate of 90% or more (almost completely withered)), the “effect rating on crop, g: rapeseed” value (rapeseed [9]; 320 g/ha) was 3 (Herbicidal rate of 40% or more and less than 70%) and the “effect rating on crop, e: wheat” value (wheat [10]; 320 g/ha) was 0 (Herbicidal rate of 5% or less (almost no effect)). The “effect on rapeseed (g)” value (rapeseed [11]; 3 weeks after application) was 5 (Herbicidal rate of 90% or more (almost completely withered)).

With `CCCOc1ccc(-c2sc3ccc(F)cc3c2-c2c(OC(=O)CCC)c(C)nn(C)c2=O)cc1` [2-033] the “effect on false cleavers (Q)” value (false cleavers [1]) was 5 (Herbicidal rate of 90% or more (almost completely withered)).

For `Cc1nn(C)c(=O)c(-c2c(-c3ccc(CSCC(F)(F)F)cc3)sc3ccc(F)cc23)c1O` [2-331], the “herbicidal effect on Q: false cleavers” value (false cleavers [12]; [13]) was 0 (Herbicidal rate of 5% or less (almost no effect)).

In the case of `Cc1nn(C)c(=O)c(-c2c(-c3ccc(OC(C)C)cc3)sc3ccccc23)c1O` [1-020], the “herbicidal effect rating, Q: false cleavers” value (“herbicidal effect rating, Q” below) (false cleavers [12]; [13]) is reported as 0 (Herbicidal rate of 5% or less (almost no effect)).

With `Cc1nn(C)c(=O)c(-c2c(-c3ccc(C#N)cc3)sc3ccccc23)c1O` [Compound No. 1-045, 5-hydroxy-2,6-dimethyl-4-(2-(4-cyanophenyl)benzo[b]thiophen-3-yl)pyridazin-3(2H)-one] the “Effect on crop a: transplanted rice (grade 0-5)” value (transplanted rice) was 0 (Herbicidal rate of 5% or less (almost no effect)), the “effect on crop grade, d: soybean” value (soybean [2]; three weeks after application) was 1 (Herbicidal rate of 5% or more and less than 20%) and the “effect on crop b (directly sowed rice), rating 0-5” value (directly sowed rice) was 0 (Herbicidal rate of 5% or less (almost no effect)). For the same compound, the “effect on crop grade, e: wheat” value (wheat [3]; three weeks after application) was 0 (Herbicidal rate of 5% or less (almost no effect)), the “herbicidal effect grade, Q: false cleavers” value (from here on “herbicidal effect grade, Q”) (false cleavers [1]; three weeks after application) was 5 (Herbicidal rate of 90% or more (almost completely withered)) and the “effect rating on crop, f: beet” value (beet [4]; [13]) was 5 (Herbicidal rate of 90% or more (almost completely withered)). For the same compound, the “effect rating on crop, c: corn” value (corn [5]; [13]) was 0 (Herbicidal rate of 5% or less (almost no effect)), the “effect rating on crop, d: soybean” value (soybean [6]; [13]) was 3 (Herbicidal rate of 40% or more and less than 70%) and the melting point was 240 to 242 °C. The “herbicidal effect rating, Q” value (false cleavers [12]; [13]) was 4 (Herbicidal rate of 70% or more and less than 90%), the “effect on crop grade, c: corn” value (corn [7]; three weeks after application) was 0 (Herbicidal rate of 5% or less (almost no effect)) and the “effect on crop grade, f: beet” value (beet [8]; three weeks after application) was 5 (Herbicidal rate of 90% or more (almost completely withered)). For the same compound, the “effect rating on crop, g: rapeseed” value (rapeseed [9]; [13]) was 5 (Herbicidal rate of 90% or more (almost completely withered)), the “effect rating on crop, e: wheat” value (wheat [10]; [13]) was 0 (Herbicidal rate of 5% or less (almost no effect)) and the “effect on crop grade, g: rapeseed” value (rapeseed [11]; three weeks after application) was 5 (Herbicidal rate of 90% or more (almost completely withered)).

With `CCCC(=O)Oc1c(C)nn(C)c(=O)c1-c1c(-c2ccc(OC)cc2)sc2ccc(F)cc12` [2-027] the “effect on false cleavers (Q)” value (false cleavers [1]) was 0 (Herbicidal rate of 5% or less (almost no effect)) and the “herbicidal effect rating, Q” value (false cleavers [12]; 320 g/ha) was 0 (Herbicidal rate of 5% or less (almost no effect)).

In the case of `Cc1nn(C)c(=O)c(-c2c(-c3ccc4c(c3)OCCO4)sc3ccccc23)c1O` [1-089], the “herbicidal effect rating, Q” value (false cleavers [12]; [13]) is reported as 5 (Herbicidal rate of 90% or more (almost completely withered)).

In the case of `CCCCOc1ccc(-c2sc3ccccc3c2-c2c(O)c(C)nn(C)c2=O)cc1` [1-024], the “herbicidal effect grade, Q” value (false cleavers [1]; three weeks after application) is reported as 4 (Herbicidal rate of 70% or more and less than 90%) and the “herbicidal effect rating, Q” value (false cleavers [12]; [13]) is reported as 0 (Herbicidal rate of 5% or less (almost no effect)).

For `Cc1nn(C)c(=O)c(-c2c(-c3ccc(OCC(F)F)cc3)sc3ccccc23)c1O` [1-203], the “effect on false cleavers (Q)” value (false cleavers [1]) was 5 (Herbicidal rate of 90% or more (almost completely withered)).

For `CCCC(=O)Oc1c(C)nn(C)c(=O)c1-c1c(-c2ccc(OC(C)C)cc2)sc2ccc(F)cc12` [2-035], the “effect on false cleavers (Q)” value (false cleavers [1]) was 4 (Herbicidal rate of 70% or more and less than 90%).

For `CCCC(=O)Oc1c(C)nn(C)c(=O)c1-c1c(-c2ccc(F)cc2OCC)oc2ccc(C)cc12` [9-010], the “herbicidal effect on false cleavers (Q)” value (false cleavers [1]; 246 g/ha, three weeks after application) was 3 (Herbicidal rate of 40% or more and less than 70%).

With `Cc1nn(C)c(=O)c(-c2c(-c3ccc(F)cc3)sc3ccc(F)cc23)c1O` [2-001] the “effect on false cleavers (Q)” value (false cleavers [1]) was 5 (Herbicidal rate of 90% or more (almost completely withered)).

For `CCCOc1ccc(-c2sc3ccccc3c2-c2c(O)c(C)nn(C)c2=O)cc1` [1-019], the “herbicidal effect grade, Q” value (false cleavers [1]; three weeks after application) was 3 (Herbicidal rate of 40% or more and less than 70%) and the “herbicidal effect rating, Q” value (false cleavers [12]; [13]) was 0 (Herbicidal rate of 5% or less (almost no effect)).

For `CCCC(=O)Oc1c(C)nn(C)c(=O)c1-c1c(-c2ccc(SC)cc2)sc2ccccc12` [1-037], the “herbicidal effect rating, Q” value (false cleavers [12]; [13]) was 0 (Herbicidal rate of 5% or less (almost no effect)).

With `CCOc1ccccc1-c1sc2cc(OC)ccc2c1-c1c(O)c(C)nn(C)c1=O` [3-070] the “Q: false cleavers, herbicidal effect grade” value (false cleavers [1]; 80 g/ha, three weeks after application) was 5 (Herbicidal rate of 90% or more (almost completely withered)) and the “Q: false cleavers, herbicidal effect grade” value (false cleavers [12]; amount of applied herbicide 80 g/ha) was 1 (Herbicidal rate of 5% or more and less than 20%).

For `COc1ccccc1-c1sc2cc(C)ccc2c1-c1c(O)c(C)nn(C)c1=O` [3-049], the “Q: false cleavers, herbicidal effect grade” value (false cleavers [1]; 274 g/ha, three weeks after application) was 5 (Herbicidal rate of 90% or more (almost completely withered)) and the “Q: false cleavers, herbicidal effect grade” value (false cleavers [12]; amount of applied herbicide 274 g/ha) was 3 (Herbicidal rate of 40% or more and less than 70%).

With `CCCC(=O)Oc1c(C)nn(C)c(=O)c1-c1c(-c2ccc3c(c2)OCO3)sc2ccc(F)cc12` [2-091] the “herbicidal effect on Q: false cleavers” value (false cleavers [1]) was 4 (Herbicidal rate of 70% or more and less than 90%).

With `CCCCOc1ccc(-c2sc3ccccc3c2-c2c(OC(=O)CCC)c(C)nn(C)c2=O)cc1` [1-025] the “herbicidal effect grade, Q” value (false cleavers [1]; three weeks after application) was 3 (Herbicidal rate of 40% or more and less than 70%) and the “herbicidal effect rating, Q” value (false cleavers [12]; [13]) was 0 (Herbicidal rate of 5% or less (almost no effect)).

In the case of `C=CCOC(=O)Oc1c(C)nn(C)c(=O)c1-c1c(-c2ccc(OC(F)F)cc2)sc2ccc(F)cc12` [2-294], the “Q: false cleavers, herbicidal effect (criteria 0-5)” value (false cleavers [1]; AAH 320 g/ha) is reported as 5 (Herbicidal rate of 90% or more (almost completely withered)).

For `COc1ccccc1-c1sc2ccc(Cl)cc2c1-c1c(O)c(C)nn(C)c1=O` [2-101], the “herbicidal effect on Q: false cleavers” value (false cleavers [1]) was 5 (Herbicidal rate of 90% or more (almost completely withered)) and the “Q: false cleavers, herbicidal effect rating” value (false cleavers [12]; [13]) was 5 (Herbicidal rate of 90% or more (almost completely withered)).
